According to patent US10603319B2, “Pyrimidine derivatives and their use in treating or preventing a respiratory syncytial virus infection” (REVIRAL LIMITED, priority 2016, dated 2020):
Read-outs that look alike come from different tables or passages of the source.

Experiments:
Format in all cases: cell-based
RSV A2 = test: Plaque Reduction Assay 1 (Vero cells, immunostaining); conditions: two replicate values, read-out: RSV Plaque Reduction assays A2 (PRNT1) (n = 2) IC50
Experimental: Plaque Reduction Assay 1: Vero cells were seeded in 96-well plates in a volume of 100 μL of Optimem supplemented with 3% FCS at a concentration of 4×10^4 cells per well. After an overnight incubation at 37° C. in a humidified 5% CO2 atmosphere, the monolayer of cells should be approximately 90% confluent. Antiviral compounds were titrated in pre-warmed Serum Free (SF) Optimem in a U-bottom 96 well plate. For compounds in a DMSO solution, titration in 100% DMSO was performed first and each concentration added individually to a 2× final concentration at 4% DMSO in SF media before mixing with virus (2% final DMSO with virus). Media was then removed from cells and replaced with PBS (100 μl/well). RSV stock was thawed and diluted in SF Optimem media to 4000 PFU/mLl. An equal volume of virus was added to compounds on the titration plate. PBS was removed from cells which were then inoculated with the virus/compound solution (50 μL/well). Cells were incubated for 2 h in a 37° C.+5% CO2 humidified incubator to allow infection. Inoculum was removed and media (Optimem+1% FCS) added to cells (100 μl/well). Cells were subsequently incubated for 48 h at 37° C.+5% CO2 in a humidified incubator. Immunostaining Procedure: Media was removed from cells and the monolayer washed with PBS. Cells were fixed with ice cold 80% Acetone in PBS (100 μl/well) for 20 mins at −20° C. Fixative was removed and cells are dried for 30 mins with plates inverted. Blocking solution (5% skim milk powder in PBS-T) was added to cells (150 μL/well) and plates were incubated for 30 mins at room temperature. Blocking solution was removed and plates washed once with PBS-T. Primary antibody in blocking solution was added to plates (50 μl/well) and incubated for 1 h at 37° C. Plates were then washed 3 times with PBS-T. Secondary antibody in blocking solution was added to plates ([…]) and incubated for 1 h at 37° C. in the dark. Plates were washed as above and then dried for 10 mins. Plates were scanned on the Odyssey Imager (Li-Cor Biosciences) at a resolution of […], medium quality and level 5 intensity in the […]. Data Analysis: Images obtained were saved and plaque numbers counted with the aid of computer imaging software. EC50 values for compounds were derived from dose response curves [three variable log(inhibitor) vs response] obtained using Graphpad Prism software.

RSV A2_F = molecular target: T1, RSV A2_F (Human respiratory syncytial virus A, UniProt P03420); test: RSV fusion assay (luciferase reporter, HEK 293T/17 cells transfected with A2_F); conditions: Fusion activity IC50 μM, HEK 293T/17 cells, 24 hr
T1 construct: expressed in transfected cells; host or cells: HEK 293T/17
T1 sequence (P03420 137-574): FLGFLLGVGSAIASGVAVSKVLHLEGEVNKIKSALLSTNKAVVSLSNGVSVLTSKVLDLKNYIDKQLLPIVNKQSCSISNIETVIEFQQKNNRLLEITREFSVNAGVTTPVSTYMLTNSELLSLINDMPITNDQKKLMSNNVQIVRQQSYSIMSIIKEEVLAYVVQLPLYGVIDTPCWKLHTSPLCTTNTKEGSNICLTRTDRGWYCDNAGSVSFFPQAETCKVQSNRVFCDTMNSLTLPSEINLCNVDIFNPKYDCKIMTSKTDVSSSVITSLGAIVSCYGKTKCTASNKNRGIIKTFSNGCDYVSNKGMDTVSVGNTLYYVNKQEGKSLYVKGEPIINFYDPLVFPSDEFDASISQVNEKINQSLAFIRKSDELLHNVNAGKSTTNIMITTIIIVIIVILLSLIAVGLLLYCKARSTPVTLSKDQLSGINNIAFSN
T1 sequence (P03420 26-109): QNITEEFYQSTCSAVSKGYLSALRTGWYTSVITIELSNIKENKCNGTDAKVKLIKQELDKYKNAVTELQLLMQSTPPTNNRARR
Experimental: HEK 293T/17 cells were cultured in T75 culture flasks in Dulbecco's medium (DMEM) containing 10% FBS and 1× Penicillin-Streptomycin (Pen/Strep) and warmed to 37° C. prior to use. The cells were passaged by first washing briefly with 3 ml phosphate buffered saline (PBS) followed by a 4 min incubation with […] at 37° C. 7 ml media was then added to the flask and the cells dispersed via pipetting (×3) against the bottom of the flask. Two further T75 flasks were each seeded with 2×10^6 cells in 15 ml fresh media.
Cells were seeded on the T75 plates at the same density as on the 6-well plates the area of a T75 flask and one 1.75 cm radius well from a 6-well plate were compared. 7.79×2 ml of 3×10^5 cells ml^−1 was used to seed a single T75 flask.
HEK cells were removed from a T75 flask as described above. The cells were counted and diluted to 3×10^5 cells/ml in fresh media. Two T75 flasks were each seeded with 15.58 ml diluted cells.
The plasmid DNA (for pFR-Luc and pcDNA3.1_Gal4/NFκB) to be transfected into the HEK cells was first prepared in serum free media (DMEM+Pen/Strep) containing the transfection reagent Fugene 6 (Promega). Transfections were set up as follows (Luc=pFR_Luc, Gal4=pcDNA3.1+_Gal4/NFκB, A2_F=pcDNA3.1+_A2_F)
Serum free media was placed in a 1.5 ml eppendorf tube then the fugene 6 was added into the media. The tube was vortexed for 1 s before being incubated at RT for 5 min. The plasmid DNA was then added to the tube, vortexed for 1 s, then incubated at RT for 15 min
The transfection reagents were then added to the appropriate T75 flask by tipping the flask on end and adding the reagents directly to the media already in the flask. The flask was then tipped on its back so the media could be mixed thoroughly whilst not disturbing the cells before placing the flask the right way up and incubating overnight at 37° C. and 5% CO2.
Compounds were diluted (in a polypropylene round-bottomed 96 well plate) 1:3 in a twelve point dilution curve to give top [final] of either 3.3 μM, 1 μM, 500 nM 200 nM or 100 nM. The Control compound was always run at a concentration of 100 nM.
The cells were then counted and diluted to 4×10^5 cells/ml in fresh media. 50 μl of transfection population 1 cells were added to all wells of the assay plates. 100 μl diluted compound (2 rows per compound), standard curve (one row) and controls (100 nM RV (100% inhibition, four wells), DMSO (0% inhibition, eight wells)) were added to the appropriate wells. 50 μl of the diluted (4×10^5 cells/ml) transfection population 2 cells when then added to all wells.
The plates were then incubated for 24 hr at 37° C. and 5% CO2
Buffers were prepared for the luciferase assay (20 mM tricine, 10 mM MgSO4, 1 mM EDTA, 10 mM DTT) and lysis (25 mM tris-phosphate, 8 mM MgCl2, 1 mM DTT, 1% Triton X-100, 15% glycerol) and stored at −20° C.
Luminescence was measured as described:
Media was discarded into Virkon and the plates washed with 100 ul PBS per well. 20 ul/well of lysis buffer was added to each well and incubated shaking for 5 min at RT. Luciferin was added to LAAB at a dilution of 1:50 to give a working luciferin buffer. 100 μl working luciferin buffer was added to each well and luminescence was measured immediately. […]

RSV A2 VR-1540 = test: Plaque Reduction Assay 2 (HEp-2 cells, virospot count); conditions: human respiratory syncytial virus, 24 h; RSV A2, HEp-2 cells, 1 day
From the text: Plaque Reduction Assay 2:
This RSV plaque reduction assay is an infectivity assay which allows quantification of the number of infectious units in a distinct foci of RSV infection. This is indicated by zones of viral antigen detected by specific antibody staining within a monolayer of otherwise healthy tissue culture cells. As each plaque originates from a single infectious virus particle an accurate calculation of the anti-viral effect can be obtained by counting plaques in the presence and absence of an anti-viral compound. HEp-2 cells (ATCC, CCL23) were passaged in flasks and seeded in 96-well plates in DMEM containing antibiotics and supplemented with 10% FBS. During inoculation and subsequent incubation, cells were cultured in DMEM containing 3% FBS. 100 plaque forming unit (PFU)/well of RSV (RSV A2 VR-1540) was mixed with ten serial dilutions of compound. Subsequently, 100 μL of the virus/compound mixtures was added to confluent HEp-2 cell monolayers. The cells and virus/compound mixtures were incubated at 35° C. in a humidified 5% CO2 incubator for 1 day.
Cells were washed twice with PBS before adding 50% v/v EtOH/MeOH, and then stored at −20° C. On the day of the staining, fixative was first removed from the plates. Plates were washed 3× with PBS. A pre-titrated amount of the primary antibody was added in 60 μL PBS/2% milk powder, and plates incubated for 1 h at rt. The plates were washed 3× with PBS/0.05% Tween20 before addition of goat anti-mouse horse radish peroxidase in 60 μL PBS/2% milk powder, and incubated for 1 h at rt. Following three wash steps with PBS/0.05% Tween20, 60 μL ready-to-use TrueBlue was added and plates were incubated at rt for 10-15 min before adding MilliQ water. Plates were washed once with water, incubated for 30-60 min and after removal of water, air-dried in the dark.
Plates were scanned and analyzed using the Immunospot S6 UV analyzer, which is equipped with BioSpot analysis software for counting immunostained plaques (virospots). Plaque counts were used to calculate % infection relative to the mean of the spot count (SC) in the virus control wells for RSV. IC50/IC90 values were calculated as 50% or 90% reduction in signal, respectively, by interpolation of inhibition curves fitted with a 4-parameter nonlinear regression with a variable slope in GraphPad 5.0 (Prism).

[1] = human respiratory syncytial virus, Vero

Row | Compound | IC50 (RSV A2; [1]) | IC50 (RSV A2) | IC50 (RSV A2_F) | IC50 (RSV A2 VR-1540)
1 | CC(C)CCNc1nc(N2CCC(N)C2)ncc1CN1C(=O)C2(CC2)c2ccc(F)cc21 (stereo not shown) [Compound 1, 1′-((2-(3-Aminopyrrolidin-1-yl)-4-(isopentylamino)pyrimidin-5-yl)methyl)-6′-fluorospiro[cyclopropane-1,3′-indolin]-2′-one] | 619 nM | 316 nM | 0.708 µM | 
2 | CC(C)CNc1nc(N2CCC(N)C2)ncc1CN1C(=O)C2(CC2)c2ccc(F)cc21 (stereo not shown) [Compound 5, 1′-((2-(3-Aminopyrrolidin-1-yl)-4-(isobutylamino)pyrimidin-5-yl)methyl)-6′-fluorospiro[cyclopropane-1,3′-indolin]-2′-one] | 165 nM | 215 nM | 0.655 µM | 998 nM
3 | NC1CCN(c2ncc(CN3C(=O)C4(CC4)c4ccc(F)cc43)c(N3CCS(=O)(=O)CC3)n2)C1 (stereo not shown) [Compound 13, 1′-((2-(3-Aminopyrrolidin-1-yl)-4-(1,1-dioxidothiomorpholino)pyrimidin-5-yl)methyl)-6′-fluorospiro[cyclopropane-1,3′-indolin]-2′-one] |  |  | 5.04 µM | 424 nM
4 | NC1CCN(c2ncc(CN3C(=O)C4(CC4)c4ccc(F)cc43)c(NCCCCO)n2)C1 (stereo not shown) [Compound 4, 1′-((2-(3-Aminopyrrolidin-1-yl)-4-((4-hydroxybutyl)amino)pyrimidin-5-yl)methyl)-6′-fluorospiro[cyclopropane-1,3′-indolin]-2′-one] | 5.48 nM | 9.3 nM | 0.452 µM | 43 nM
5 | NC1CCN(c2ncc(CN3C(=O)C4(CCC4)c4ccc(F)cc43)c(N[C@H]3CC[C@H](O)CC3)n2)C1 (stereo partly shown) [Compound 20, 1′-{[2-(3-Aminopyrrolidin-1-yl)-4-[(4-hydroxycyclohexyl)amino]pyrimidin-5-yl]methyl}-6′-fluoro-1′,2′-dihydrospiro[cyclobutane-1,3′-indole]-2′-one] |  |  | 1.95 µM | 116 nM
6 | NC1CCN(c2ncc(CN3C(=O)C4(CC4)c4ccc(F)cc43)c(NCCCO)n2)C1 (stereo not shown) [Compound 27, 1′-{[2-(3-Aminopyrrolidin-1-yl)-4-[(3-hydroxypropyl)amino]pyrimidin-5-yl]methyl}-6′-fluoro-1′,2′-dihydrospiro[cyclopropane-1,3′-indole]-2′-one] |  |  | 1.09 µM | 34 nM
7 | NCCNc1ncc(CN2C(=O)C3(CC3)c3ccc(F)cc32)c(NCCCCO)n1 [Compound 25, 1′-({2-[(2-Aminoethyl)amino]-4-[(4-hydroxybutyl)amino]pyrimidin-5-yl}methyl)-6′-fluoro-1′,2′-dihydrospiro[cyclopropane-1,3′-indole]-2′-one] |  |  | 0.212 µM | 49 nM
